The test system of data set [1] is Agrobacterium strain AGL0. The data set can be described thus: Agrobacterium growth assay on solid minimal medium, wild-type AGL0. The class given is cell-based. Set-up: key to Growth score: a score of zero (0) indicating no visible colonies; 1+ indicating a few isolated colonies; ++: progressing up to 5+; +++: progressing up to 5+; ++++: progressing up to 5+; +++++: 5+ indicating a confluent lawn. As for the experimental part: (§1) For all Agrobacterium growth-assay experiments, standard Agrobacterium minimal medium was used, with no additives as a control treatment, or with the addition of either 5-fluorocytosine, 5-fluorouracil or thymidine. To begin these tests, experiments were conducted to test for growth of wild-type and mutant AGL0 Agrobacterium strains on either 5-fluorocytosine (5-fluorocytosine, the non-toxic substrate of the CODA protein) or 5-fluorouracil (5-fluorouracil, the toxic product).
(§2) In Table 4, results of a more detailed kill-curve for strain AGL0 on 5-fluorouracil are shown. […] Finally, a third experiment was performed using either wild-type AGL0 or an auxotrophic mutant of AGL0 in which the gene encoding thymidylate synthase was inactivated, rendering the bacteria incapable of growth in the absence of thymidine (this strain was referred to as AGL0 THY−). The two strains were plated at high densities (10^6 or 10^8 CFU/plate) onto medium containing 0, 1 or 3 μg/ml 5-fluorouracil, with each of these three treatments containing either 0 or 50 mg/l thymidine.
(§3) The newly developed AGL0 mutant strain (THY−/codA+, see Example 1) was plated on varying concentrations of 5-fluorocytosine to assess growth. This strain, along with wild-type AGL0 were cultured overnight in liquid medium, diluted to 10^7 CFU and then 100 μl of suspension was plated onto minimal Agro medium+/− thymidine, with either 0, 100, 200 or 300 μg/ml 5-fluorocytosine, for a total of 8 treatments. After 72 hours at 28° C., the plates were scored for Agrobacterium growth.

The test system of a further data set is AGL0 THY−. The data set can be described thus: Agrobacterium growth assay on solid medium, thymidine auxotroph AGL0 THY−. The class given is cell-based. As to conditions: thy 50 mg/l, 5-fluorouracil 0 μg/ml, after 24 hours. The procedure:
as §2

In data set [2] the test system is AGL0 mutant strain (THY−/codA+). The data set can be described thus: Growth of AGL0 THY−/codA+ on 5-fluorocytosine. It is filed as cell-based, Agrobacterium. The procedure: as §3
Data set [3] relates to Agrobacterium strain LBA4404. The data set can be described thus: Agrobacterium growth assay on solid minimal medium, LBA4404. Set-up: key: a score of zero (0) indicating no visible colonies; 1+ indicating a few isolated colonies; ++: progressing up to 5+; +++: progressing up to 5+; ++++: progressing up to 5+; +++++: 5+ indicating a confluent lawn. Conditions: LBA4404 plated at 1 × 10^4, after 3 days. The class given is cell-based. The procedure: as §1

The test system of data set [4] is Agrobacterium strain EHA101. The data set can be described thus: Agrobacterium growth assay on solid minimal medium, EHA101. It is filed as cell-based. Further details: key: a score of zero (0) indicating no visible colonies; 1+ indicating a few isolated colonies; ++: progressing up to 5+; +++: progressing up to 5+; ++++: progressing up to 5+; +++++: 5+ indicating a confluent lawn. Conditions: EHA101 plated at 1 x 10^4, after 3 days. The procedure: as §1

The subject of data set [5] is Agrobacterium strain EHA105. The data set can be described thus: Agrobacterium growth assay on solid minimal medium, EHA105. Conditions: EHA105 plated at 1 × 10^4, after 3 days. The class given is cell-based. Further details: key: a score of zero (0) indicating no visible colonies; 1+ indicating a few isolated colonies; ++: progressing up to 5+; +++: progressing up to 5+; ++++: progressing up to 5+; +++++: 5+ indicating a confluent lawn. As for the experimental part:
as §1

For data set [6], the system named is four Agrobacterium strains (AGL0, LBA4404, EHA101 and EHA105). The data set can be described thus: Agrobacterium growth assay, the four strains. The class given is cell-based. Conditions: 5-fluorocytosine up to the highest concentration tested (1000 μg/ml). The procedure: as §1
The subject of data set [7] is immature embryos of inbred HC69. The data set can be described thus: Callus initiation from corn immature embryos, inbred HC69. The class given is cell-based. As to conditions: for HC69: embryos producing a callus response / embryos plated / Embryo with culture - Response (callus initiation frequency): 18 d cultured on 13152C; for Embryo with culture - Response (callus initiation frequency): HC69. The procedure: (§4) Agrobacterium was tolerant of the substrate (5-fluorocytosine) and was inhibited by low levels of the converted product (5-fluorouracil). An experiment was performed to determine whether corn immature embryos and growing callus were sensitive to the substrate, 5-fluorocytosine. Immature embryos of two inbred lines ([…] or PHH5G, representative non-stiff-stalk and stiff-stalk Pioneer Hi-Bred inbreds) were plated onto appropriate callus culture media (see Table 6) supplemented with 0, 100, […]

For data set [8], the system named is immature embryos of inbred PHH5G. The data set can be described thus: Callus initiation from corn immature embryos, inbred PHH5G. Conditions: for PHH5G: embryos producing a callus response / embryos plated / Embryo with culture - Response (callus initiation frequency): 18 d cultured on 13152C; for Embryo with culture - Response (callus initiation frequency): PHH5G. The class given is cell-based. As for the experimental part:
as §4

As to `Cc1cn([C@H]2C[C@H](O)[C@@H](CO)O2)c(=O)[nH]c1=O` [thy, thymidine], the Growth score result in data set [1] (AGL0 1 x 10^6, thy 50 mg/l, 5-fluorouracil 0 μg/ml, after 24 hours) was “+++”; in [1] (AGL0 1 x 10^8, thy 50 mg/l, 5-fluorouracil 0 μg/ml, after 24 hours), “+++”; in the data set with AGL0 THY− (AGL0 THY- 1 x 10^6), “+++”; with AGL0 THY− (AGL0 THY- 1 x 10^8), “+++”. For the same molecule, the Growth result in data set [2] (50 mg/l thymidine, no 5-fluorocytosine, 72 hours) is “confluent lawn of colonies”.
Regarding `Nc1nc(=O)[nH]cc1F` [5-fluorocytosine], the Growth score entry in data set [1] (AGL0 plated at 1 × 10^4, 500 μg/ml 5-fluorocytosine, after 3 days) is on record as “+++”; in [1] (AGL0 plated at 1 × 10^4, 1000 μg/ml 5-fluorocytosine, after 3 days), “+++”; in data set [1] (AGL0 plated at 4 × 10^7, 500 μg/ml 5-fluorocytosine, after 3 days), “+++++”; in [1] (AGL0 plated at 4 × 10^7, 1000 μg/ml 5-fluorocytosine, after 3 days) it was “+++++”; in data set [3] (500 μg/ml 5-fluorocytosine) it was “+++”; in data set [3] (1000 μg/ml 5-fluorocytosine), “+++”. Further, the Growth score result in data set [4] (500 μg/ml 5-fluorocytosine), in data set [4] (1000 μg/ml 5-fluorocytosine), in data set [5] (500 μg/ml 5-fluorocytosine) and in data set [5] (1000 μg/ml 5-fluorocytosine) was “+++” in each case. For the same molecule, the Growth entry in data set [1] (wild-type AGL0, 100, 200 or 300 μg/ml 5-fluorocytosine, +/− thymidine, 72 hours at 28° C.) is listed as “grew under all 5-fluorocytosine concentrations”; in [2] (100, 200 or 300 μg/ml 5-fluorocytosine, thymidine present, 72 hours at 28° C.) it was “did not grow”. In data set [6], the Growth inhibition result was “no apparent growth inhibition”. The “HC69: embryos producing a callus response / embryos plated” value in data set [7] (100 μg/ml 5-fluorocytosine) is listed as 32/50; in [7] (250 μg/ml 5-fluorocytosine), 34/50; in [7] (400 μg/ml 5-fluorocytosine), 34/50. In addition, the “Embryo with culture - Response (callus initiation frequency)” value in data set [7] (100 μg/ml 5-fluorocytosine) stood at 64%; in data set [7] (250 μg/ml 5-fluorocytosine), 68%; in [7] (400 μg/ml 5-fluorocytosine) it was 68%; in [8] (100 μg/ml 5-fluorocytosine), 24%; in [8] (250 μg/ml 5-fluorocytosine), 36%; in data set [8] (400 μg/ml 5-fluorocytosine), 32%. In addition, the “Callus initiation frequency or callus growth rates vs no 5-fluorocytosine” value in [7] (inbred printed as HC96, 100, 250 or 400 μg/ml 5-fluorocytosine, 3 weeks) is given as “no discernible differences”; in data set [8] (inbred PHH5G, 100, 250 or 400 μg/ml 5-fluorocytosine, 3 weeks), “no discernible differences”. For the same molecule, the “PHH5G: embryos producing a callus response / embryos plated” value in data set [8] (100 μg/ml 5-fluorocytosine) was 12/50; in data set [8] (250 μg/ml 5-fluorocytosine) it was 18/50; in data set [8] (400 μg/ml 5-fluorocytosine) it was 8/25.

The record behind these values is patent US20180265877A1, “METHODS AND COMPOSITIONS FOR AGROBACTERIUM COMPRISING NEGATIVE SELECTION MARKERS” (PIONEER HI-BRED INTERNATIONAL, INC., priority 2015, published 2018).
